Laboratory results reported in patent US20080038198A1, “Method Of Screening Molecule Associated With Psychiatric Disorder” (MITSUBISHI PHARMA CORPORATION, priority 2004, published 2008).
“Also recorded” adds a separate entry of the source.

Columns and labels:
Format in all cases: in vivo, Caenorhabditis elegans
[1] = system: nematodes; assay: slowing response: number of body bends over 20 seconds on drug-containing assay plate; conditions: acute treatment on plate containing no feed
Description: Nematodes were bred on a lawn of E. coli OP50 coated on a 60-mm NGM plate (Genetics, 77, pp. 71-94, 1974) in an incubator at 20° C.
MAP hydrochloride was dissolved in sterilized pure water at a 100-fold concentration, and 50 μL of the solution was applied to a 35-mm NGM plate (5 mL). As a control group, sterilized water used as a solvent was similarly applied to prepare an assay plate. Apomorphine (hereinafter also abbreviated as “APO”) dissolved in 0.1% aqueous ascorbic acid as a solvent was applied as a solution of 100-fold concentration in a similar manner to prepare an assay plate. For a control group, 0.1% aqueous ascorbic acid was used. The periphery of each assay plate was applied with a 3.5 mol/L sucrose solution to prevent nematodes from invading the back of the plate. Adult-stage nematodes bred on the E. coli lawn were washed with S-basal buffer (Genetics, 77, pp. 71-94, 1974), then transferred to each of the aforementioned assay plates, and left at room temperature with light shielding for one hour in the MAP treatment or 30 minutes in the APO treatment, and the number of body bends over 20 seconds was counted under a stereoscopic microscope. […]

[2] = system: nematodes; assay: behavioral sensitization analysis: MAP pretreatment, washout on E. coli lawn, then drug challenge and body bend count
Description: MAP hydrochloride was dissolved in sterilized pure water at a 100-fold concentration, and 50 μL of the solution was applied to a 35-mm NGM plate (5 mL). As a control group, sterilized water used as a solvent was similarly applied to prepare an assay plate. Apomorphine (hereinafter also abbreviated as “APO”) dissolved in 0.1% aqueous ascorbic acid as a solvent was applied as a solution of 100-fold concentration in a similar manner to prepare an assay plate. For a control group, 0.1% aqueous ascorbic acid was used. The periphery of each assay plate was applied with a 3.5 mol/L sucrose solution to prevent nematodes from invading the back of the plate. Adult-stage nematodes bred on the E. coli lawn were washed with S-basal buffer (Genetics, 77, pp. 71-94, 1974), then transferred to each of the aforementioned assay plates, and left at room temperature with light shielding for one hour in the MAP treatment or 30 minutes in the APO treatment, and the number of body bends over 20 seconds was counted under a stereoscopic microscope. In the behavioral sensitization analysis, nematodes treated on the MAP-containing NGM plate for one hour were returned to the E. coli lawn, bred at 20° C. for a predetermined time and then treated with various drugs, and their behavior was observed.

[3] = system: nematodes; assay: imipramine treatment: number of eggs laid during 90 minutes
Description: Nematodes washed with S-basal buffer were transferred onto a 35-mm assay plate prepared by applying imipramine (hereinafter abbreviated as “IMI”) in the same manner as that used for MAP, and the number of eggs laid during 90 minutes was counted. Five nematodes were transferred to each plate, and the count was obtained for each plate.

[4] = system: nematodes; assay: screening for chemical substance inhibiting establishment of MAP-induced behavioral sensitization; conditions: ondansetron 1 or 10 μM with 300 μM MAP and overnight; MAP challenge next day
Description: In an incubator inside of which was maintained at 20° C., nematodes were bred on an Escherichia coli lawn prepared by applying the E. coli OP50 strain on a 60-mm NGM plate (Genetics, 77, pp. 71-94, 1974).
MAP hydrochloride was dissolved in pure water to prepare a 30 mM solution, and 50 μL of the solution was applied to a 35-mm NGM plate (5 mL) to prepare a 300 μM MAP plate. This MAP plate was further applied with 50 μL of an ondansetron solution (0.1 or 1 mM) dissolved in 100 mM NaCl or 0.1 N hydrochloric acid and adjusted to neutral pH by using NaOH to complete an assay plate. Nematodes (adults) bred on the Escherichia coli lawn were washed with S-basal buffer (Genetics, 77, pp. 71-94, 1974) for a short period of time, and then incubated on each of the aforementioned assay plates at 20° C. for one hour with light shielding. For this procedure, the periphery of each assay plate was applied with a 3.5 M sucrose solution to prevent nematodes from invading the back of the assay plate. […] On the following day, the nematodes were washed with S-basal buffer for a short period of time and transferred onto a MAP challenge plate prepared by applying 50 μL of a 10 μM MAP solution on a 35-mm NGM plate (5 mL), and the number of body bends over 20 seconds was counted under a stereoscopic microscope.

SMILES: CN[C@@H](C)Cc1ccccc1 [MAP, methamphetamine]
- locomotion (slowing response) [1]: inhibited locomotion of nematodes in a concentration-dependent manner; also recorded: inhibited the locomotion in a concentration-dependent manner
- susceptibility to MAP-induced slowing response (establishment of behavioral sensitization) ([2]; 300 μmol/L MAP experienced on the previous day, MAP challenge next day): increased susceptibility to a treatment with MAP was observed; also recorded: the susceptibility was increased
- dependence of establishment of behavioral sensitization on MAP pretreatment concentration ([2]; MAP pretreatment on previous day at various concentrations): dependent on the MAP concentration used for pretreatment; also recorded: dependent on the concentration of MAP experienced on the previous day
- APO-induced slowing response after MAP pretreatment (cross of behavioral sensitization) ([2]; MAP pretreatment, APO challenge): increased susceptibility to APO and induced slowing responses even at a low concentration; also recorded: enhanced by an MAP pretreatment
- duration of MAP-induced behavioral sensitization ([2]; MAP washout period from pretreatment to challenge): at least 2 days
- influence of MAP pretreatment on IMI-induced egg-laying behavior ([3]; MAP treatment on the previous day, IMI challenge): had no effect on IMI-induced egg-laying behavior; also recorded: had no influence on the egg-laying behavior promoted by IMI

SMILES: CN1CCc2cccc3c2[C@H]1Cc1ccc(O)c(O)c1-3 [APO, Apomorphine]
- locomotion (slowing response) [1]: induced slowing responses in a concentration-dependent manner; also recorded: inhibited the locomotion in a concentration-dependent manner

SMILES: CN(C)CCCN1c2ccccc2CCc2ccccc21 [IMI, imipramine]
- egg laying behavior ([3]; IMI applied on NGM plate, eggs laid during 90 minutes): increased egg laying behavior in a concentration-dependent manner; also recorded: promoted egg laying in a concentration-dependent manner

SMILES: Cc1nccn1CC1CCc2c(c3ccccc3n2C)C1=O (stereo not drawn) [ondansetron]
- establishment of MAP-induced behavioral sensitization [4]: inhibition of establishment of MAP-induced behavioral sensitization; also recorded: exhibits an antagonistic action on the establishment of MAP-induced behavioral sensitization
